Data set [1] concerns HIV LTR promoter (Tat-transactivation). Nature of the data set: Tat-transactivation of HIV promoter activity in Cos cells, SEAP assay. It counts as cell-based. The following applies: read-out: IC50 for inhibition of HIV Tat-regulated transactivation. The source says:
As reported previously, methylated NDGA derivatives can block Sp1 binding to the enhancer sites of a variety of viral promoters including HIV, ICP4 of HSV, E6/E7 gene of HPV (8, 9, 10). We further tested the G4N effect on the Tat-transactivation of HIV promoter activity in Cos cells by the SEAP assay as previously described. […] There were 60-fold or more increase in SEAP expression when Cos cells were cotransfected with the CMV promoter driven Tat gene (8). Such Tat-driven ransactivation of the HIV LTR promoter activity was previously shown to be Sp1 regulated (7, 8). In the presence of G4N, we observed inhibition of HIV transactivation in a dose-dependent fashion (FIG. 14). […]. The differences perhaps are due to the chemical nature of the test compounds affecting the drug uptake to the cells.

The test system of data set [2] is 174×CEM cells. It counts as cell-based, human. An excerpt: Both HIV-1 and SIV are retroviruses that require integration into the host genome to complete their replication. Both rely on host transcription factors for their proviral transcriptions. Sp1 plays a central role for such expression in these two viruses sharing an almost identical mode of transcription regulation. In anticipation of using SIV infected rhesus monkeys as animal model for testing the antiviral effect of G4N, we have studied and compared the G4N effect in inhibition of SIV in 174×CEM cells with that of HIV in H9 cells. Cellular toxicities of G4N in these two cell lines were also examined. For SIV inhibition study, 10^7 174×CEM cells were mixed with high titer stock of SIVmac 239 at 37° C. for two hours and then washed twice with cold PBS buffer to remove the unabsorbed virus. Cell suspension was aliquoted into each well of three 96 well plates. Various concentrations of the G4N solutions were made from freshly prepared stock and aliquoted separately and each to six wells in a column of one 96 well plate. Culture supernatants were collected every four days post infection. […] There was no SIV production detected using G4N in concentrations above […]. At G4N concentrations below 2.5 CIM, SIV production was detected (FIG. 15) in culture supernatants from 4th and 8th days post infected cultures as compared to viral production in the absence of the drug.

A short description of data set [3]: Toxicity studies of G4N in mice. To be noted: for Mortality: 6 days.
Experimental: C57BL-16NCR female mice from NCI were used in this experiment.
Injections of 0.05 ml for group 1, 0.1 ml for groups 2 and 4, and 0.2 ml for group 3 per treatment were made for a period of 6 days. Experiments lasted seven days. Body weights were determined before and after six days of injection.
Data set [4] has as its target Sp1-167D / HIV Sp1-binding sites (Homo sapiens, UniProt P08047). Nature of the data set: Gel mobility-shift analysis (EMSA) of Sp1-167D binding to HIV Sp1 DNA template. To be noted: 0.25 to 1.75 mM. How it is done:
FIG. 13. Electrophoretic mobility shift assay (EMSA) of G4N interaction with the HIV Sp1-binding sites (−87 to −49). (A) G4N inhibition of Sp1-167D binding to ^32P labeled HIV Sp1 DNA template. […] Lane 1, template alone; lanes 2-4, template plus increasing amounts of Sp1-167D (0.075, 0.150, 0.300 μg); lanes 5-8, template incubated in reaction buffer containing 1.2 mM G4N followed by challenge with increasing amounts of Sp1-167D (0.075, 0.150, 0.300 μg), lane 8 received no Sp1-167D. (D) Plot of diminishing Sp1-167D/DNA complex band intensities in response to increasing concentrations of G4N used in (A) ---•--- and (B) —•—. The gels used were 5% non-denaturing polyacrylamide with each lane receiving 5 μl of each reaction volume as described in experimental section and Ref. [1].
Sp1 family proteins induce bends toward the major groove of DNA upon binding (33). The zinc finger domain of the Sp1 protein is responsible for the binding of the GC Box sequence 5′-GGGGCGGGG-3′. From computational analysis, it was determined that G4N, the aminoester derivative of NDGA, could form a stable complex with such a sequence in the major groove. To determine whether G4N can serve as an Sp1 blocker as well as an Sp1 displacer, we performed Sp1/enhancer interaction studies in the presence or absence of G4N by the gel mobility-shift analysis using only the […] binding domain of Sp1 for testing. […]

The subject of data set [5] is H9 cells. It counts as cell-based. How it is done:
(§1) A similar experiment was also carried out for the study of inhibition of HIV-1 by G4N in H9 cells. The H9 cells were subcultured at 1×10^5/ml and were infected with an AZT resistant strain of HIV-1(HIV-1RTMF). G4N in different concentrations was added two hours after infection. Fresh medium change was made every four days. Cell growth in the presence of G4N was monitored carefully during the nine-day experimental period. Viral production was assayed by a p24 core antigen capture ELISA. […] Again, there was no detectable toxicity to uninfected H9 cells within the range of the assay (and below 250 μM).

In data set [6] the test system is HIV-1RTMF. Nature of the data set: HIV-1 production in H9 cells, p24 antigen capture ELISA. It counts as cell-based. To be noted: p24, AZT resistant strain, read-out: IC50 for the inhibition of HIV-1 RTMF. How it is done: FIG. 16. Inhibition of HIV p24 antigen production in H9 cells by G4N. Inhibition in percentage was calculated by comparing p24 level from an average of two duplicate cultures of G4N treated and not treated H9 cells 9 days following viral infection with a AZT resistant HIV strain, HIV-1RTMF.
as §1

Data set [7] concerns SIVmac 239. Nature of the data set: SIV production in 174×CEM cells, p27 antigen capture ELISA. The class given is cell-based. How it is done: FIG. 15. SIV production with presence of G4N. 10^7 […], a human T-cell lymphoma cell line, were mixed with a 24 hrs. harvest stock of SIV mac 239 (4 ng of p27) for two hours at 37. Cells were resuspended and 1×10^5 cells in 100 μl medium were added to each well of three 96-well plates. Various concentrations of G4N from a freshly made stock were prepared and added to each of the six designed well. Culture supernatants were collected after four and eight days for viral production analysis. Viral production was assayed by a modified p27 capsid protein antigen capture ELISA as described in experimental section.
Both HIV-1 and SIV are retroviruses that require integration into the host genome to complete their replication. Both rely on host transcription factors for their proviral transcriptions. Sp1 plays a central role for such expression in these two viruses sharing an almost identical mode of transcription regulation. […] There was no SIV production detected using G4N in concentrations above […]. At G4N concentrations below 2.5 CIM, SIV production was detected (FIG. 15) in culture supernatants from 4th and 8th days post infected cultures as compared to viral production in the absence of the drug.

Data set [8] has as its system HSV-1. Nature of the data set: HSV-1 skin infection in guinea pig, topical treatment. It counts as in vivo. To be noted: 30 μl of 60 mg/ml in DMSO, five times per day for six days. How it is done:
The drug M4N was also tested in inhibition of HSV-1 replication in skin infections in guinea pigs. Guinea pig skin was pinched with needles and HSV-1 […] was applied topically to infect each pricked area. M4N was then applied to the pricked infected area following infection daily for 6 days.
Six areas of bared back skin of a guinea pig were punched sterilely with a 5=DIN needle. Two areas were infected with HSV-1 (HSV-C, culture supernatant, or isolated HSV in saline, HSV-SC). The other four areas were infected with HSV-SC.

Data set [9] concerns HSV-1. To be noted: cited from earlier work; for IC50: infected Vero cells.
In data set [10] the test system is HSV-2. To be noted: infected Vero cells; fourth passage of HSV-2; cited from earlier work.
The subject of data set [11] is mammalian cells. The following applies: low concentrations (10 μM); cited from earlier work.

Like-named read-outs stand apart in the source and are kept apart here.

Chain of Sp1-167D / HIV Sp1-binding sites (P08047 619-785 limits assumed): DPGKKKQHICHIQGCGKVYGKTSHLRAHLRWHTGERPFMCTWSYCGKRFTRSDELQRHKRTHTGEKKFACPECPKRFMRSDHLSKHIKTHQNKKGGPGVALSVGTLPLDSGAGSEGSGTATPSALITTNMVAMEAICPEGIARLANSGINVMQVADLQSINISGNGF

For `COc1cc(C[C@H](C)[C@H](C)Cc2ccc(O)c(O)c2)ccc1O` [Ma1.4, 3-O-methyl NDGA, reference compound], the IC50 in data set [1] worked out at 25 µM.

`C[C@H](Cc1ccc(OC(=O)CN(C)C)c(OC(=O)CN(C)C)c1)[C@@H](C)Cc1ccc(OC(=O)CN(C)C)c(OC(=O)CN(C)C)c1.Cl.Cl.Cl.Cl` [G4N, meso-1,4-Bis [3,4-(dimethylaminoacetoxy)phenyl]-(2R,3S)-dimethylbutane Chloride Salt]: the “concentration with no toxic effect on uninfected cells” value in [2] was ≤ 250 µM. Besides, the Mortality in [3] (187.5 mg/kg, Subcutaneous, 2× per day) was 0/3; in [3] (375 mg/kg, IV, 2× per day), 0/2; in data set [3] (375 mg/kg, Subcutaneous, 1× per day) it was 0/3; in data set [3] (750 mg/kg, Subcutaneous, 1× per day), 1/4. Further, the “body weight changes during the experimental period” value in data set [3] (before and after six days of injection) was “No significant weight changes”. The “blocking and displacement of Sp1-167D binding to DNA” value in data set [4] is on record as “able keep DNA from interacting with Sp1-167D protein”. Moreover, the half-maximal inhibitory concentration (IC50) in data set [1] is 36 µM; in data set [6], 12 µM. The “concentration with no detectable toxicity to uninfected cells” value in [5] is reported as “below 250 μM”. In addition, the “concentrations at which no SIV production was detected” value in [7] is “above 5 CIM”. For the same molecule, the “concentrations at which SIV production was detected” value in [7] (4th and 8th days post infection) was “below 2.5 CIM”.

For the molecule `Nc1nc2c(ncn2COCCO)c(=O)[nH]1` [ACV, acycloguanosine], the “blisters in HSV-1 infected skin areas at day 6” value in data set [8] was “no blisters”. In addition, the “drop of selective index, S.I. (TC50/IC50)” value in [9] (following the viral passages in Vero cells) is reported as 60 fold. The IC50 was 7 µM in [9] (first viral passage), 444 µM in [9] (tenth passage of HSV-1) and > 88 µM in [10].

`CC(Cc1ccc(O)c(O)c1)C(C)Cc1ccc(O)c(O)c1` (stereo not shown) [NDGA, nordihydroguaiaretic acid]: in [11], the “apoptosis in mammalian cells” value was “induce apoptosis”.

The values are drawn from patent US8318815B2, “Method for treatment of tumors using nordihydroguaiaretic acid derivatives” (priority 1999, dated 2012).
